Literature values as cited in patent US20220184234A1, “METABOLIC TARGETING OF LOW GRADE TUMORS” (SonalaSense, Inc., priority 2020, published 2022).

System: tumor
[1] = all experimental groups (5-ALA and FUS)

In the case of `NCC(=O)CCC(=O)O` [5-ALA, 5-aminolevulinic acid], the normalized tumor volume (5-ALA only group (no FUS), untreated controls 32±10 mm^3) is given as 24±6 mm^3, the “subjects surviving past 60 days” value (5-ALA, group sonicated at multiple points within the tumor (MP group)) is given as 50% and the “survival compared to control animals” value [1] is given as “improved survival”. The “tumor growth compared to control animals” value [1] was “inhibited tumor growth” and the tissue damage (rats, 20 mg/kg 5-ALA, sonication at 55.2 W/cm^2 for 20 minutes) was “suffered tissue damage”.
